The subject of assay [1] is collagen 3A1 gene expression. Nature of the assay: Real-time RT-PCR in HSC, collagen 3A1. It is filed as cell-based, human. The settings on record: 0.625 μM, FIG. 8. On the procedure:
(§1) Human Hepatic Stellate cells (LX-2 cell line) (HSCs) were obtained from the Key Lab of Regenerative Medicine, Jinan University, Guangzhou, China, which were maintained in Dulbecco's Modified Eagle Medium (DMEM)+10% fetal calf serum and penicillin-streptomycin (100 unit/ml and 0.1 mg/ml, respectively), in 5% CO2 at 37° C. inside a humidified cell incubator. The culture medium was changed every three days. To test the effects of small molecule Hesperadin on the mouse and human HSCs, the cultures were treated with 0.625 μM of Hesperadin for 48 hrs. […] The proliferation of HSCs was also evaluated by the MTT staining assay with 3-(4,5-Dimethylthiazol-2-yl)-2,5-diphenyltetrazolium bromide). […] The absorbance (at 570 nm) was measured using a BIORAD 3550 Microplate Reader. […]
Collagen type-I, -III and -VI, MMP-2, MMP-9 and TIMP-1 gene expression was determined using quantitative real-time PCR. […] Quantitation of mRNA levels was performed using a SYBR® Premix Ex Taq™ Kit (Takara) in an Applied Biosystems 7900HT Fast Real-Time PCR System. To quantify the amount of specific mRNA in the samples, a standard curve was generated for each PCR run using four amounts of the cDNA synthesized from our HSC cultures and liver samples. […] Data was analyzed using a StatView software (Abacus Concepts Inc) with Student's t-test.

A further assay relates to human HSC's (LX-2). Nature of the assay: HSC morphology under the microscope. In kind it is cell-based. As to the method:
as §1, with “In the control cultures, the HSCs appeared morphologically to be like fibroblasts (FIG. 1A). In the presence of Hesperadin, the HSC cells increased in size 2-3 folds (FIGS. 1B and C). The effect of Hesperadin on HSC growth was examined. […] The cell-cycle progression of HSCs is further analyzed in the presence of 0.625 μM Hesperadin using Flow Cytometry. […] Human” for “Human”, “hrs. The cultures were then fixed in ice cold 70% ethanol and incubated in phosphate buffered saline with RNase (0.25 mg/ml), Propidium iodide dye (40 μg/ml) and 0.1% Triton X for an hour at room temperature.” for “hrs.”

The next assay concerns human HSC (LX-2) cells. Nature of the assay: Cell cycle analysis by flow cytometry (propidium iodide). In kind it is cell-based. Particulars: 0.625 μM, vs control cultures. As to the method:
Human Hepatic Stellate cells (LX-2 cell line) (HSCs) were obtained from the Key Lab of Regenerative Medicine, Jinan University, Guangzhou, China, which were maintained in Dulbecco's Modified Eagle Medium (DMEM)+10% fetal calf serum and penicillin-streptomycin (100 unit/ml and 0.1 mg/ml, respectively), in 5% CO2 at 37° C. inside a humidified cell incubator. The culture medium was changed every three days. To test the effects of small molecule Hesperadin on the mouse and human HSCs, the cultures were treated with 0.625 μM of Hesperadin for 48 hrs. The cultures were then fixed in ice cold 70% ethanol and incubated in phosphate buffered saline with RNase (0.25 mg/ml), Propidium iodide dye (40 μg/ml) and 0.1% Triton X for an hour at room temperature. For cell cycle analysis, the Propidium iodide stained cells were examined using a flow cytometer (“BD LSRFortessa Cell Analyzer”). The proliferation of HSCs was also evaluated by the MTT staining assay with 3-(4,5-Dimethylthiazol-2-yl)-2,5-diphenyltetrazolium bromide). HSCs were plated at 1×10^4 cells/ml and culture overnight. Hesperadin (in serial dilutions) was then added into the culture medium for 48 hours. This was followed by addition of MTT (250 μg/ml) for a further 4 hours. The medium was eluted and the formazan crystal was dissolved in 100 μL of DMSO. The absorbance (at 570 nm) was measured using a BIORAD 3550 Microplate Reader. […]

“Also recorded” adds a separate entry of the source.

`CCS(=O)(=O)Nc1ccc2c(c1)/C(=C(/Nc1ccc(CN3CCCCC3)cc1)c1ccccc1)C(=O)N2` [Hesperadin, (Z)—N-(2-oxo-3-(Phenyl(4-(piperidin-1-ylmethyl)phenylamino)methylene)indolin-5-yl)ethanesulfonamide]: the “Collagen 3A1 mRNA expression” value in assay [1] is “confirmed by real-time RT-PCR analysis”. Besides, in the assay on human HSC's (LX-2) (0.625 or 1.25 μM, 48 hrs), the “increase in HSC cell size” value is 2-3 folds. Moreover, the “increase in HSC size (FIG. 1)” value with human HSC's (LX-2) (0.65 and 1.25 μM, 24 hours) is on record as “several folds”. The “cell-cycle progression of HSCs” value in the assay with human HSC (LX-2) cells is given as “significantly more HSCs in the G2-M phase; also recorded: appeared to block cytokinesis”.
